# US6833456B2, “Indolyl-urea derivatives of thienopyridines useful as antiangiogenic agents, and methods for their use” (Agouron Pharmaceuticals, Inc., priority 2002, dated 2004)
# Experiment: Human liver microsome (HLM) assay
# Type: in vitro ADME
# Details: human liver microsomes
# Experimental: Compound metabolism in human liver microsomes was measured by LC-MS analytical assay procedures as follows. First, human liver microsomes (HLM) were thawed and diluted to 5 mg/mL with cold 100 mM potassium phosphate (KPO4) buffer. Appropriate amounts of KPO4 buffer, NADPH-regenerating solution (containing B-NADP, glucose-6-phosphate, glucose-6-phosphate dehydrogenase, and MgCl2), and HLM were preincubated in 13×100 mm glass tubes at 37° C. for 10 min. (3 tubes per test compound—triplicate). Test compound (5 μM final) was added to each tube to initiate reaction and was mixed by gentle vortexing, followed by incubation at 37° C. […] Samples were centrifuged at 4000 rpm for 20 min. to precipitate proteins and salt (Beckman Allegra 6KR, S/N ALK98DO6, #634). Supernatant was transferred to new 12×75 mm glass tubes and evaporated by Speed-Vac centrifugal vacuum evaporator. Samples were reconstituted in 200 μL 0.1% formic acid/acetonitrile (90/10) and vortexed vigorously to dissolve. The samples were then transferred to separate polypropylene microcentrifuge tubes and centrifuged at 14000×g for 10 min. (Fisher Micro 14, S/N M0017580). […]
# The combined compound samples were injected into the LC-MS system, composed of a Hewlett-Packard HP1100 diode array HPLC and a Micromass Quattro II triple quadruple mass spectrometer operating in positive electrospray SIR mode (programmed to scan specifically for the molecular ion of each test compound). Each test compound peak was integrated at each timepoint. […]
compound,measurement,value
"COC[C@H]1CCCN1C(=O)c1cc2nccc(Nc3ccc4c(c3)cc(C)n4C(=O)NC3CC3)c2s1 [Example 1d, 5-[2-(2R-Methoxymethyl-pyrrolidine-1-carbonyl)-thieno[3,2-b]pyridin-7-ylamino]-2-methyl-indole-1-carboxylic acid cyclopropylamide]","% remain (HLM-NADPH, 0.5 h)",85%
"CNC(=O)n1c(C)cc2cc(Nc3ccnc4cc(C(=O)N5CCC[C@H]5COC)sc34)ccc21 [Example 1t, 5-(2-[(S)-2-(methoxymethyl)pyrrolidine-1-carbonyl]thieno[3,2-b]pyridin-7-ylamino)-2-methylindole-1-carboxylic acid methylamide]","% remain (HLM-NADPH, 0.5 h)",76.3%
"CNC(=O)n1c(C)cc2cc(Nc3ccnc4cc(-c5nccn5C)sc34)ccc21 [Example 2a, 5-(2-[1-methyl-1H-imidazol-2-yl]thieno[3,2-b]pyridin-7-ylamino)-2-methylindole-1-carboxylic acid methylamide]","% remain (HLM-NADPH, 0.5 h)",91.1%
same,"% remain (HLM-UDPGA, 0.5 h)",101.8%
"CNC(=O)n1c(C)cc2cc(Nc3ccnc4cc(C(=O)N5CCC[C@H]5CO)sc34)ccc21 [Example 2b, 5-(2-[(S)-2-(hydroxymethyl)pyrrolidine-1-carbonyl]thieno[3,2-b]pyridin-7-ylamino)-2-methylindole-1-carboxylic acid methylamide]","% remain (HLM-NADPH, 0.5 h)",92.1%
same,"% remain (HLM-UDPGA, 0.5 h)",104.8%
"COC[C@@H]1CCCN1C(=O)c1cc2nccc(Nc3ccc4c(c3)cc(C)n4C(=O)NC3CC3)c2s1 [Example 2c, 5-(2-[(S)-2-(methoxymethyl)pyrrolidine-1-carbonyl]thieno[3,2-b]pyridin-7-ylamino)-2-methylindole-1-carboxylic acid cyclopropylamide]","% remain (HLM-NADPH, 0.5 h)",76.2%
"COC[C@@H]1CCCN1C(=O)c1cc2nccc(Oc3ccc4c(c3)cc(C)n4C(=O)NC3CC3)c2s1 [Example 4b, 5-(2-[(S)-2-(methoxymethyl)pyrrolidine-1-carbonyl]thieno[3,2-b]pyridin-7-yloxy)-2-methylindole-1-carboxylic acid cyclopropylamide]","% remain (HLM-NADPH, 0.5 h)",70.9%
"C#CCNC(=O)n1c(C)cc2cc(Oc3ccnc4cc(C(=O)N5CCC[C@H]5COC)sc34)ccc21 [Example 4c, 5-(2-[(S)-2-(methoxymethyl)pyrrolidine-1-carbonyl]thieno[3,2-b]pyridin-7-yloxy)-2-methylindole-1-carboxylic acid prop-2-ynylamide]","% remain (HLM-NADPH, 0.5 h)",76.1%
